Measured values: patent publication US5077280A, “Treatment of viral infections” (priority 1988, dated 1991)

Columns and labels:
[1] = in vivo; cited from earlier work
[2] = tested on: viral replication (reverse transcriptase); test: suppression of viral replication (assessed by inhibition of reverse transcriptase); format: cell-based; settings: combination molar ratios (uridine/AZT) as high as 10,000/1
bone marrow cells = format: cell-based, human; settings: 5 μM AZT for 2 hours; 50-100 μM of uridine (and also cytidine)
human CFU-GM cells = test: human CFU-GM cell proliferation; format: cell-based; settings: concentrations as high as 100 μM
human bone marrow cells = test: toxicity for human bone marrow cells; format: cell-based
[3] = tested on: bone marrow cell growth (granulocyte-macrophages and erythrocytes); settings: patients; cited from earlier work

O=c1ccn([C@@H]2O[C@H](CO)[C@@H](O)[C@H]2O)c(=O)[nH]1 [uridine]
clearance by the body [1]: cleared rapidly | impairment of suppression of viral replication [2]: no impairment of suppression of viral replication | reversal of toxic effects of antiviral nucleoside analogues (bone marrow cells): essentially completely reversed

O=c1[nH]c(=O)n(COCCO)cc1Cc1ccccc1 [BAU, benzylacyclouridine]
effect on human CFU-GM cell proliferation (human CFU-GM cells): no substantial effect | toxicity per se for human bone marrow cells (human bone marrow cells): non-toxic

Nc1ccn([C@@H]2O[C@H](CO)[C@@H](O)[C@H]2O)c(=O)n1 [cytidine]
reversal of toxic effects of antiviral nucleoside analogues (bone marrow cells): essentially completely reversed

Cc1cn([C@H]2C[C@H](N=[N+]=[N-])[C@@H](CO)O2)c(=O)[nH]c1=O [AZT, 3'-azido-3'deoxythymidine]
common complication of AZT therapy [3]: suppression of bone marrow cell growth
